Tested on: 299254-011-R-J1-PDC complex spheroid viability
Assay: Anticancer human tumor 299254-011-R-J1-PDC patient-derived melanoma cell line growth inhibition [POLQ]
Conditions: for IC50: curve of first compound; for viability, T/C: stronger effect = lower value
In short: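 PDC + HUVEC + MSC complex spheroids; POLQ inhibitors ± partner drugs; top conc. at/near clinical Cmax, else 10 microM (SN-38 1 microM), half-log dilutions; 37 degrees C, 5% CO2.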

[1] = second compound 0.0316 µM, first compound 0.0316 µM
[2] = second compound 0.0316 µM, first compound 0.1 µM
[3] = second compound 0.0316 µM, first compound 0.316 µM
[4] = second compound 0.0316 µM, first compound 1 µM
[5] = second compound 0.0316 µM, first compound 3.16 µM
[6] = second compound 0.0316 µM, first compound 10 µM
[7] = second compound 0.1 µM, first compound 0.0316 µM
[8] = second compound 0.1 µM, first compound 0.1 µM
[9] = second compound 0.1 µM, first compound 0.316 µM
[10] = second compound 0.1 µM, first compound 1 µM
[11] = second compound 0.1 µM, first compound 3.16 µM
[12] = second compound 0.1 µM, first compound 10 µM
[13] = second compound 0.316 µM, first compound 0.0316 µM
[14] = second compound 0.316 µM, first compound 0.1 µM
[15] = second compound 0.316 µM, first compound 0.316 µM
[16] = second compound 0.316 µM, first compound 1 µM
[17] = second compound 0.316 µM, first compound 3.16 µM
[18] = second compound 0.316 µM, first compound 10 µM
[19] = second compound 1 µM, first compound 0.0316 µM
[20] = second compound 1 µM, first compound 0.1 µM
[21] = second compound 1 µM, first compound 0.316 µM
[22] = second compound 1 µM, first compound 1 µM
[23] = second compound 1 µM, first compound 3.16 µM
[24] = second compound 1 µM, first compound 10 µM
[25] = second compound 3.16 µM, first compound 0.0316 µM
[26] = second compound 3.16 µM, first compound 0.1 µM
[27] = second compound 3.16 µM, first compound 0.316 µM
[28] = second compound 3.16 µM, first compound 1 µM
[29] = second compound 3.16 µM, first compound 3.16 µM
[30] = second compound 3.16 µM, first compound 10 µM
[31] = second compound 10 µM, first compound 0.0316 µM
[32] = second compound 10 µM, first compound 0.1 µM
[33] = second compound 10 µM, first compound 0.316 µM
[34] = second compound 10 µM, first compound 1 µM
[35] = second compound 10 µM, first compound 3.16 µM
[36] = second compound 10 µM, first compound 10 µM
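Also: spheroids exposed to drugs for one week before measurement.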
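For viability, T/C in this document: percent viability relative to DMSO vehicle control taken as 100%.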

SMILES: O=C(Nc1ccc(O)c(NS(=O)(=O)c2ccc(F)cc2)c1)c1ccc(-c2ccccc2)cc1 + Cc1cccc(N(C)C(=O)C2C(O)CCN2c2nc(C)cc(C(F)(F)F)c2C#N)c1
- IC50 (second compound 0.0316 µM): > 10 µM
- IC50 (second compound 0.1 µM): 9.45 µM
- IC50 (second compound 0.316 µM): > 10 µM
- IC50 (second compound 1 µM): > 10 µM
- IC50 (second compound 3.16 µM): 9.75 µM
- IC50 (second compound 10 µM): 8.66 µM
- viability, T/C [1]: 102%
- viability, T/C [2]: 99.2%
- viability, T/C [3]: 92.7%
- viability, T/C [4]: 104%
- viability, T/C [5]: 99.3%
- viability, T/C [6]: 54.8%
- viability, T/C [7]: 105%
- viability, T/C [8]: 107%
- viability, T/C [9]: 98%
- viability, T/C [10]: 107%
- viability, T/C [11]: 96.3%
- viability, T/C [12]: 47.3%
- viability, T/C [13]: 102%
- viability, T/C [14]: 115%
- viability, T/C [15]: 98.2%
- viability, T/C [16]: 123%
- viability, T/C [17]: 93.7%
- viability, T/C [18]: 56.2%
- viability, T/C [19]: 106%
- viability, T/C [20]: 111%
- viability, T/C [21]: 109%
- viability, T/C [22]: 104%
- viability, T/C [23]: 90.7%
- viability, T/C [24]: 53%
- viability, T/C [25]: 108%
- viability, T/C [26]: 103%
- viability, T/C [27]: 101%
- viability, T/C [28]: 94.8%
- viability, T/C [29]: 100%
- viability, T/C [30]: 48.9%
- viability, T/C [31]: 98.7%
- viability, T/C [32]: 98%
- viability, T/C [33]: 93.6%
- viability, T/C [34]: 110%
- viability, T/C [35]: 83.4%
- viability, T/C [36]: 45.2%

SMILES: Nc1ccn(C2OC(CO)C(O)C2(F)F)c(=O)n1 (stereo not drawn) + Cc1cccc(N(C)C(=O)C2C(O)CCN2c2nc(C)cc(C(F)(F)F)c2C#N)c1
- IC50 (second compound 0.0316 µM): 0.0653 µM
- IC50 (second compound 0.1 µM): 0.0737 µM
- IC50 (second compound 0.316 µM): 0.0742 µM
- IC50 (second compound 1 µM): 0.0787 µM
- IC50 (second compound 3.16 µM): 0.0418 µM
- IC50 (second compound 10 µM): 0.0764 µM
- viability, T/C [1]: 66.5%
- viability, T/C [2]: 41.4%
- viability, T/C [3]: 31.7%
- viability, T/C [4]: 37.7%
- viability, T/C [5]: 40.8%
- viability, T/C [6]: 36.6%
- viability, T/C [7]: 66%
- viability, T/C [8]: 43.7%
- viability, T/C [9]: 46.8%
- viability, T/C [10]: 38%
- viability, T/C [11]: 42.8%
- viability, T/C [12]: 43.5%
- viability, T/C [13]: 70.5%
- viability, T/C [14]: 42.3%
- viability, T/C [15]: 41.2%
- viability, T/C [16]: 42%
- viability, T/C [17]: 35.2%
- viability, T/C [18]: 35.8%
- viability, T/C [19]: 76.9%
- viability, T/C [20]: 44.1%
- viability, T/C [21]: 33.5%
- viability, T/C [22]: 33.7%
- viability, T/C [23]: 49.9%
- viability, T/C [24]: 40.3%
- viability, T/C [25]: 59.1%
- viability, T/C [26]: 43%
- viability, T/C [27]: 37.1%
- viability, T/C [28]: 41.1%
- viability, T/C [29]: 42.5%
- viability, T/C [30]: 37.6%
- viability, T/C [31]: 72.8%
- viability, T/C [32]: 44.2%
- viability, T/C [33]: 34.1%
- viability, T/C [34]: 39.8%
- viability, T/C [35]: 32.9%
- viability, T/C [36]: 48.1%

SMILES: CCc1c2c(nc3ccc(O)cc13)-c1cc3c(c(=O)n1C2)COC(=O)[C@]3(O)CC + Nc1ccc(C#CCN(C(=O)Cc2ncc(C(F)(F)F)cc2C(F)(F)F)c2ccc(F)cc2)nn1
- IC50 (second compound 0.0316 µM): > 1 µM
- IC50 (second compound 0.1 µM): > 1 µM
- IC50 (second compound 0.316 µM): > 1 µM
- IC50 (second compound 1 µM): > 1 µM
- IC50 (second compound 3.16 µM): > 1 µM
- IC50 (second compound 10 µM): > 1 µM
- viability, T/C (second compound 0.0316 µM, first compound 0.00316 µM): 94.8%
- viability, T/C (second compound 0.0316 µM, first compound 0.01 µM): 85.3%
- viability, T/C [1]: 81.9%
- viability, T/C [2]: 75.5%
- viability, T/C [3]: 76.8%
- viability, T/C [4]: 63.9%
- viability, T/C (second compound 0.1 µM, first compound 0.00316 µM): 89.7%
- viability, T/C (second compound 0.1 µM, first compound 0.01 µM): 85.5%
- viability, T/C [7]: 72.2%
- viability, T/C [8]: 77.2%
- viability, T/C [9]: 68.7%
- viability, T/C [10]: 57.9%
- viability, T/C (second compound 0.316 µM, first compound 0.00316 µM): 108%
- viability, T/C (second compound 0.316 µM, first compound 0.01 µM): 81.7%
- viability, T/C [13]: 69.5%
- viability, T/C [14]: 79%
- viability, T/C [15]: 71%
- viability, T/C [16]: 58.5%
- viability, T/C (second compound 1 µM, first compound 0.00316 µM): 111%
- viability, T/C (second compound 1 µM, first compound 0.01 µM): 85.3%
- viability, T/C [19]: 73.9%
- viability, T/C [20]: 79.5%
- viability, T/C [21]: 63.6%
- viability, T/C [22]: 55.6%
- viability, T/C (second compound 3.16 µM, first compound 0.00316 µM): 97.6%
- viability, T/C (second compound 3.16 µM, first compound 0.01 µM): 84.1%
- viability, T/C [25]: 81.9%
- viability, T/C [26]: 72.3%
- viability, T/C [27]: 72.9%
- viability, T/C [28]: 59.9%
- viability, T/C (second compound 10 µM, first compound 0.00316 µM): 96.4%
- viability, T/C (second compound 10 µM, first compound 0.01 µM): 73.2%
- viability, T/C [31]: 68.7%
- viability, T/C [32]: 71.1%
- viability, T/C [33]: 61.9%
- viability, T/C [34]: 61.5%

SMILES: CCc1cc2c(N3CCc4c(cc(Cn5ccnc5)cc4-c4cn(C)nc4C(F)(F)F)C3=O)ccnc2c(OC)n1 + Cc1cccc(N(C)C(=O)C2C(O)CCN2c2nc(C)cc(C(F)(F)F)c2C#N)c1
- IC50 (second compound 0.0316 µM): > 10 µM
- IC50 (second compound 0.1 µM): > 10 µM
- IC50 (second compound 0.316 µM): > 10 µM
- IC50 (second compound 1 µM): > 10 µM
- IC50 (second compound 3.16 µM): > 10 µM
- IC50 (second compound 10 µM): > 10 µM
- viability, T/C [1]: 97.6%
- viability, T/C [2]: 119%
- viability, T/C [3]: 98.9%
- viability, T/C [4]: 106%
- viability, T/C [5]: 109%
- viability, T/C [6]: 80.4%
- viability, T/C [7]: 98.7%
- viability, T/C [8]: 102%
- viability, T/C [9]: 99.7%
- viability, T/C [10]: 99.4%
- viability, T/C [11]: 99.1%
- viability, T/C [12]: 86.1%
- viability, T/C [13]: 98.5%
- viability, T/C [14]: 91.2%
- viability, T/C [15]: 116%
- viability, T/C [16]: 112%
- viability, T/C [17]: 84.2%
- viability, T/C [18]: 72.8%
- viability, T/C [19]: 110%
- viability, T/C [20]: 96.9%
- viability, T/C [21]: 113%
- viability, T/C [22]: 107%
- viability, T/C [23]: 91%
- viability, T/C [24]: 86%
- viability, T/C [25]: 106%
- viability, T/C [26]: 96.9%
- viability, T/C [27]: 101%
- viability, T/C [28]: 105%
- viability, T/C [29]: 95.5%
- viability, T/C [30]: 76.4%
- viability, T/C [31]: 94%
- viability, T/C [32]: 112%
- viability, T/C [33]: 105%
- viability, T/C [34]: 82.1%
- viability, T/C [35]: 75.7%
- viability, T/C [36]: 79%

— PubChem BioAssay AID1963849 (Molecular Pharmacology Branch, DTP, NCI, 2024)
